The test has as its system primary cultures of rat hippocampus neurons. Description: release of [3H]-L-glutamate from primary cultures of rat hippocampus neurons (neuronal exocytosis). The test is classed as cell-based. The method, then:
Assay of the Activity of the Irreversibly Chemically Modified Peptides Derived from the SNAP-25 Protein on the Neuronal Exocytosis of [^3H]-L-Glutamate
The exocytosis of this neurotransmitter in neuronal cultures can be obtained by means of electric depolarization of the cells. The primary cultures of rat embryonic hippocampus are prepared using conventional methods [Blanes-Mira C., Merino J. M., Valera E., Fernández-Ballester G., Gutiérrez L. M., Viniegra S., Pérez-Payá E. and Ferrer-Montiel A. “Small peptides patterned after the N-terminus domain of SNAP25 inhibit SNARE complex assembly and regulated exocytosis” J. Neurochem. 88, 124-135] and are maintained in culture for 14 days in an incubator at 37° C. and 5% CO2. The cultures are incubated with [^3H]-L-glutamine in order to load them with [^3H]-L-glutamate for 3 h at 37° C. The excess [^3H]-L-glutamine is subsequent washed off and they are incubated with 0.1 mM of the peptides to be studied for 1 h at 37° C. The [^3H]-L-glutamate is released by means of depolarization with 75 mM KCl and 2 mM CaCl2 buffered in physiological buffer for 10 min at 37° C. The culture medium is collected and the amount of [^3H]-L-glutamate is quantified in a beta radiation meter. The results are normalized with regard to the release of [^3H]-L-glutamate in the absence of the peptide and corrected from the basal release in the absence of calcium.

As to “SEQ ID No.11: unmodified peptide derived from the amino acid sequence of the SNAP-25 protein, residues 12 to 17 (EEMQRR) (listed as Homo sapiens)”, the “concentration required to reach inhibition levels comparable to those of the irreversibly modified peptides” value (compared with modified peptides at 0.1 mM, in the range of 30 times greater) was roughly 3 mM. Also, the “inhibition of the release of [3H]-L-glutamate” value (peptide 0.1 mM, 1 h at 37° C., depolarization with 75 mM KCl and 2 mM CaCl2, FIG. 1) stood at 5%.

The values above are taken from US9464129B2, “Neuronal exocytosis inhibiting peptides” (BCN PEPTIDES S.A., priority 2006, dated 2016).
